Laboratory results published in the supplement of paper PMC8671470.

Experiments:
Conditions in all cases: 72 h
MOLM-13 [1] = system: MOLM-13
Summary of the method: (§1)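 In 384-well plates holding acoustically pre-printed compounds at five tenfold doses from 1 to 10,000 nM, in duplicate, fifteen myeloid leukaemia cell lines were grown in RPMI 1640 for 72 h at 37 °C with 5% CO2. Luminescent ATP viability was scaled between vehicle and a positive control at 10 µM. The IC50 was then taken from log-logistic dose–response fits with four parameters.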

BV-173 [2] = system: BV-173
Summary of the method: as §1

ML-2 [3] = system: ML-2
Summary of the method: as §1

KU-812 [4] = system: KU-812
Summary of the method: as §1

KCL-22 [5] = system: KCL-22
Summary of the method: as §1

KG-1 [6] = system: KG-1
Summary of the method: as §1

HEL = system: HEL
Summary of the method: as §1

LAMA-84 [7] = system: LAMA-84
Summary of the method: as §1

Mono-Mac-6 = system: Mono-Mac-6
Summary of the method: as §1

K-562 [8] = system: K-562
Summary of the method: as §1

THP-1 [9] = system: THP-1
Summary of the method: as §1

NOMO-1 [10] = system: NOMO-1
Summary of the method: as §1

MV4-11 [11] = system: MV4-11
Summary of the method: as §1

SHI-1 = system: SHI-1
Summary of the method: as §1

HL-60 [12] = system: HL-60
Summary of the method: as §1

HL-60 [13] = test: cell viability (% survival relative to DMSO control); higher = less cytotoxic
Summary of the method: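 Four-parameter log-logistic fits in drc and PharmacoGx supplied area under the curve where it is given. Underlying viability came from CellTiter-Glo, normalised to DMSO and proteasome-inhibitor wells, with the proteasome inhibitor at 10 μM. HL-60 cells in RPMI 1640 plus 10% FBS had been rescreened against the full library at five tenfold concentrations of 1–10,000 nM, in duplicate on 384-well plates, with DMSO or 100 nM of one of three metabolic inhibitors, for 72 h at 37 °C, 5% CO2.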

MOLM-13 [14] = test: cell viability (% survival relative to DMSO control, bortezomib = 0%); higher = less cytotoxic
Summary of the method: (§2)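 After 72 h at 37 °C with 5% CO2, cell viability in 384-well plates was measured by CellTiter-Glo luminescence. The plates held compounds pre-printed at 1, 10, 100, 1000 or 10000 nM in duplicate, and cells from 10 AML and 5 CML lines seeded at densities titrated to linear growth. Percent survival is the duplicate mean, normalised to vehicle as 100% and a 10 µM positive control as 0%.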

BV-173 [15] = test: as above
Summary of the method: as §2

ML-2 [16] = test: as above
Summary of the method: as §2

KU-812 [17] = test: as above
Summary of the method: as §2

KCL-22 [18] = test: as above
Summary of the method: as §2

KG-1 [19] = test: as above
Summary of the method: as §2

LAMA-84 [20] = test: as above
Summary of the method: as §2

K-562 [21] = test: as above
Summary of the method: as §2

THP-1 [22] = test: as above
Summary of the method: as §2

NOMO-1 [23] = test: as above
Summary of the method: as §2

MV4-11 [24] = test: as above
Summary of the method: as §2

HL-60 [25] = test: as above
Summary of the method: as §2

Cl.NC(CCC(=O)Nc1ccc([N+](=O)[O-])cc1)C(=O)O (stereo not given) [GPNA]
Conditions | IC50 (cell viability) [µM]
BV-173 [2] | > 10
HEL | > 10
HL-60 [12] | > 10
K-562 [8] | > 10
KCL-22 [5] | > 10
KG-1 [6] | > 10
KU-812 [4] | > 10
LAMA-84 [7] | > 10
ML-2 [3] | > 10
MOLM-13 [1] | > 10
MV4-11 [11] | > 10
Mono-Mac-6 | > 10
NOMO-1 [10] | > 10
SHI-1 | > 10
THP-1 [9] | > 10

cell viability [%], HL-60 [13]
Conditions | 0.001 µM | 0.01 µM | 0.1 µM | 1 µM | 10 µM
co-treatment: AZD3965 100 nM | 96.99 | 97.1 | 103.3 | 102 | 94.3
co-treatment: DMSO vehicle | 98.13 | 100 | 98.7 | 102 | 98.5
co-treatment: GSK2194069 100 nM | 99.6 | 104 | 99.4 | 85.4 | 96.8
co-treatment: pictilisib 100 nM | 100.2 | 97.4 | 98.5 | 98.7 | 92.5

cell viability [%]
Conditions | 1 nM | 10 nM | 100 nM | 1000 nM | 10000 nM
BV-173 [15] | 114 | 106 | 94.1 | 101 | 119
HL-60 [25] | 103 | 60.6 | 104 | 99.3 | 125
K-562 [21] | 108 | 96.3 | 100 | 109 | 120
KCL-22 [18] | 106 | 91 | 110 | 96.5 | 102
KG-1 [19] | 112 | 115 | 95.9 | 102 | 108
KU-812 [17] | 108 | 95.5 | 103 | 96.4 | 110
LAMA-84 [20] | 109 | 109 | 98 | 111 | 100
ML-2 [16] | 107 | 90.5 | 98.9 | 107 | 109
MOLM-13 [14] | 101 | 99.6 | 109 | 98.2 | 134
MV4-11 [24] | 117 | 93.5 | 100 | 99.5 | 124
NOMO-1 [23] | 107 | 102 | 101 | 105 | 105
THP-1 [22] | 106 | 101 | 101 | 102 | 104

CC(C)c1onc(-c2c(Cl)cccc2Cl)c1COc1ccc(/C=C/c2cccc(C(=O)O)c2)c(Cl)c1 [GW4064]
Conditions | IC50 (cell viability) [µM]
BV-173 [2] | 6.11
HEL | > 10
HL-60 [12] | > 10
K-562 [8] | 6.26
KCL-22 [5] | 3.6
KG-1 [6] | 8.29
KU-812 [4] | > 10
LAMA-84 [7] | 4.27
ML-2 [3] | > 10
MOLM-13 [1] | 2.34
MV4-11 [11] | 1.6
Mono-Mac-6 | > 10
NOMO-1 [10] | > 10
SHI-1 | > 10
THP-1 [9] | > 10

cell viability [%], HL-60 [13]
Conditions | 0.001 µM | 0.01 µM | 0.1 µM | 1 µM | 10 µM
co-treatment: AZD3965 100 nM | 102 | 98.93 | 91 | 109 | 93.1
co-treatment: DMSO vehicle | 99.99 | 99.3 | 101 | 99.9 | 99.6
co-treatment: GSK2194069 100 nM | 99.3 | 98.9 | 97.7 | 90.85 | 75.5
co-treatment: pictilisib 100 nM | 86.7 | 96.6 | 90.9 | 105 | 97.1

cell viability [%]
Conditions | 1 nM | 10 nM | 100 nM | 1000 nM | 10000 nM
BV-173 [15] | 111 | 96.2 | 92.3 | 87.7 | 37.4
HL-60 [25] | 115 | 93.8 | 89.7 | 109 | 51.5
K-562 [21] | 109 | 107 | 105 | 90.9 | 49.4
KCL-22 [18] | 91.5 | 93.8 | 96 | 85.6 | 31.7
KG-1 [19] | 85.6 | 81.5 | 95.8 | 76.8 | 51.2
KU-812 [17] | 96.8 | 99.7 | 90.7 | 85.1 | 76
LAMA-84 [20] | 105 | 103 | 94.2 | 85.3 | 43.4
ML-2 [16] | 95.6 | 86.2 | 84 | 86.2 | 68.5
MOLM-13 [14] | 147 | 108 | 93.8 | 86.7 | -0.111
MV4-11 [24] | 110 | 107 | 78.6 | 68.2 | 6.8
NOMO-1 [23] | 102 | 99.3 | 94 | 95.8 | 89.5
THP-1 [22] | 88.8 | 92.3 | 91.5 | 90.5 | 54.6
